In patent US4213983A, “Treating gastro-intestinal disorders and emesis with n-(heterocyclic substituted) benzamides” (Beecham Group Limited, priority 1976, dated 1980):

Columns and labels:
dopamine receptor = assay: Inhibition of stereotype behaviour induced by apomorphine; format: in vivo, rat; conditions: for Inhibition of Stereo-Type Behaviour, active dose: S.C., rat, active doses (mg/kg); for Inhibition of Stereo-Type Behaviour, number of rats: at 50mg S.C.
Method: (§1) 1. Compounds prepared in the Examples were tested for the following pharmacological activities in the rat:
(c) Inhibition of stereotype behaviour induced by apomorphine.
This is indicative of dopamine receptor blockade in the central nervous system.
The method of Ernst A. M. (1967) Pyschopharmocologia (Berl.) 10 pp. 316-323 was followed.

[1] = system: apomorphine induced delay in gastric emptying; assay: Increase in gastric emptying - reversal of apomorphine induced delay in gastric emptying of a test meal; format: in vivo, rat; conditions: S.C.; rats with chronic gastric fistula; Apomorphine HCl 5 mg/kg subcutaneously 15 minutes prior; active doses (mg/kg)
Method: as §1
(b) Increase in gastric emptying-reversal of apomorphine induced delay in gastric emptying of a test meal.
Rats equipped with chronic gastric fistula were used and it was through this that 5 ml of a test meal (5 ml phosphate buffer at pH 9) was administered and recovered. The % recovery of the standard meal after remaining in the stomach for 10 minutes was taken as an index of gastric emptying. Delay in gastric emptying was induced by the administration of Apomorphine HCl (5 mg/kg subcutaneously) and was given 15 minutes prior to the administration of the Compound. The % recoveries of the test meal was determined at 15-25 and 45-55 minutes post dosing with the Compound and compared with vehicle only dosed animals set up simultaneously. Six animals were used for each group.

intragastric pressure = assay: Increase in intragastric pressure; format: in vivo, rat; conditions: conscious restrained rats with gastric fistula, 40 minutes after administration, active doses (mg/kg)
Method: as §1
(a) Increase in intragastric pressure
Intragastric pressure changes were recorded from previously starved conscious and restrained rats using a saline filled catheter inserted into the lumen of the stomach via a permanent gastric fistula. The catheter was connected to a physiological pressure transducer and pressure changes recorded on a hot wire pen recorder. In each animal a pre-dose period of 40 minutes was allowed to obtain a measure of spontaneous activity. An index of activity was obtained by measuring the average height of pressure waves during 10 minute periods. Values for 4 such periods were obtained during assessment of spontaneous activity and for the 40 minute period after the administration of the Compounds. Student "t" test was applied to the difference in average values obtained for spontaneous and post Compound activity.

[2] = system: emetic response to apomorphine hydrochloride; assay: Abolition of the emetic response to apomorphine hydrochloride; format: in vivo; conditions: Canis lupus familiaris, sc; S.C.; dog; apomorphine hydrochloride 0.1 mg/kg subcutaneously; active doses (mg/kg); read-out: Anti-Emetic ED 50
Method: 2. Compounds were also tested for abolition of the emetic response to apomorphine hydrochloride (0.1 mg/kg subcutaneously) in the dog

| Compound | Inhibition of Stereo-Type Behaviour, active dose (dopamine receptor) | Increase in Gastric Emptying, active dose [1] | Increase in Intra-Gastric Pressure, active dose (intragastric pressure; P.O.) | Increase in Intra-Gastric Pressure, active dose (intragastric pressure; S.C.) | ED50 [2] | Inhibition of Stereo-Type Behaviour, number of rats (dopamine receptor) |
| --- | --- | --- | --- | --- | --- | --- |
| COc1cc(N)c(Cl)cc1C(=O)NC1CCN2CCCCC2C1 (stereo not drawn) [Example 2, 4-Amino-5-chloro-2-methoxy-N-(2-quinolizidinyl)-benzamide] | 15 mg | 25 mg | 50 mg | 2.5 mg | 0.7 mg/kg | – |
| COc1cc(N)c(Cl)cc1C(=O)NC1CCN2CCCC2C1 (stereo not drawn) [Example 4, 4-Amino-5-chloro-2-methoxy-N-(7-octahydro-indolizinyl)-benzamide] | 50 mg | 50 mg | – | 5 mg | < 2 mg/kg | 4 out of 7 rats |
| COc1cc(N)c(Cl)cc1C(=O)NC1CCC2CCCCN2C1 (stereo not drawn) [Example 6, 4-Amino-5-chloro-2-methoxy-N-(3-quinolizidinyl)-benzamide] | 50 mg | – | – | – | 1.4 mg/kg | 3 out of 7 rats |
| COc1cc(N)c(Cl)cc1C(=O)NC1CCCN2CCCCC12 (stereo not drawn) [Example 8b, 4-Amino-5-chloro-2-methoxy-N-(1-quinolizidinyl)-benzamide] | 50 mg | – | – | – | < 2 mg/kg | – |
| COc1cc(N)c(Cl)cc1C(=O)NC1CCN2CCc3ccccc3C2C1 (stereo not drawn) [Example 10, 4-Amino-5-chloro-N-[2-(2H-benzo[a]-quinolizine-1,3,4,6,7,11b-hexahydro)]-2-methoxy-benzamide] | – | 50 mg | – | – | – | – |
| COc1cc(N)c(Cl)cc1C(=O)NN1CCN2CCCCC2C1 (stereo not drawn) [Example 12] | – | – | – | – | 2 mg/kg | – |
| COc1cc(N)c(Cl)cc1C(=O)NC1CC2CCCCN2C1 (stereo not drawn) [Example 14, 4-Amino-5-chloro-2-methoxy-N-(2-octahydroindolizinyl)-benzamide] | 50 mg | 50 mg | – | – | < 2 mg/kg | – |
| COc1cc(N)c(Cl)cc1C(=O)NC1CCN2C(C)CCCC2C1 (stereo not drawn) [Example 16, 4-Amino-5-chloro-2-methoxy-N-(6-methyl-2-quinolizidinyl)-benzamide] | – | – | – | 1 mg | – | – |
